These results are taken from the OligoGym collection.

Where “and” joins values, the source holds several entries; their conditions need not be identical. Equal entries are not always repeated. After the bases stand the sugars from the 5' end (letter, count) and the backbone: PS all phosphorothioate, else s phosphorothioate and o phosphodiester by linkage. Methylation of C is not given here. k = constrained ethyl (cEt); d = 2'-deoxy (DNA)

For the data set, the target named is MALAT1. The following applies: ASO, A431, 0.005 µM.
AACTGTAAACCTGTGG (sugars k3 d10 k3, PS): the target mRNA inhibition was -8%.
Regarding AACTTGCCATCTACTA (sugars k3 d10 k3, PS), the target mRNA inhibition was -18%.
The same measure for AAGAACTAGCACCTGC (sugars k3 d10 k3, PS): 13%; for AAGAACTAGTGGTTCC (sugars k3 d10 k3, PS): 30%; for AAGAATCCCCCCCAAG (sugars k3 d10 k3, PS): 28%.
The figure for AAGATTTGAGCTGCAA (sugars k3 d10 k3, PS) is -1%; for AAGGCAAATCGCCATG (sugars k3 d10 k3, PS) it is 14%; for AATACCCTTCTGTTAA (sugars k3 d10 k3, PS) it is 16%.
The figure for AATACGACTGCTTAAA (sugars k3 d10 k3, PS) is 30%; for AATCAGGTGAGGCTGA (sugars k3 d10 k3, PS) it is -26%; for AATCATTGGGAGTTAC (sugars k3 d10 k3, PS) it is 24%.
As for AATCCCTTCAGGATCA (sugars k3 d10 k3, PS), the target mRNA inhibition came out at 8%.
The figure for AATCCCTTTACACCTC (sugars k3 d10 k3, PS) is 26%; for AATCTAAAAGCATTGC (sugars k3 d10 k3, PS) it is 30%.
The figure for AATGGACATCTCTTCC (sugars k3 d10 k3, PS) is 27%; for AATGTACTCAGCTTCA (sugars k3 d10 k3, PS) it is 48%.
The figure for AATTACTTCCGTTACG (sugars k3 d10 k3, PS) is 43%; for AATTCGATCACCTTCC (sugars k3 d10 k3, PS) it is 16%; for AATTGGTAGCTTTCAT (sugars k3 d10 k3, PS) it is 64% and 81%.
Take AATTTAGAGCTTCTCC (sugars k3 d10 k3, PS): the target mRNA inhibition came out at 21%.
The figure for AATTTTTCTACCGTTT (sugars k3 d10 k3, PS) is 11%; for ACAAAACCCCCGGAAC (sugars k3 d10 k3, PS) it is -153%; for ACAAAACGAATTCAGG (sugars k3 d10 k3, PS) it is 31%.
Regarding ACAAACTTGCCATCTA (sugars k3 d10 k3, PS), the target mRNA inhibition came out at 39%.
The figure for ACAACAAGTAAGCCCC (sugars k3 d10 k3, PS) is -7%.
The same measure for ACAACAATTTAGAGCT (sugars k3 d10 k3, PS): 11%; for ACAACTCGCATCACCG (sugars k3 d10 k3, PS): -212%.
The same measure for ACAATCACTACTCCAA (sugars k3 d10 k3, PS): 31%.
With ACAATTACCTAAACCC (sugars k3 d10 k3, PS), the target mRNA inhibition turned out to be 33%.
The figure for ACAGAAGTCTCGGGCT (sugars k3 d10 k3, PS) is 19%.
The figure for ACAGCTAAGATAGCAG (sugars k3 d10 k3, PS) is 2%; for ACAGCTTATGGAACTT (sugars k3 d10 k3, PS) it is 27%; for ACATATTGCCGACCTC (sugars k3 d10 k3, PS) it is 43%.
The same measure for ACATATTTTGCCCCCA (sugars k3 d10 k3, PS): 19%.
For the sequence ACATCAAGGATGTATA (sugars k3 d10 k3, PS), the target mRNA inhibition is -6%.
The figure for ACCAAAGACCTCGACA (sugars k3 d10 k3, PS) is 14%; for ACCAAAGCTGCACTGT (sugars k3 d10 k3, PS) it is 15%.
The figure for ACCAACTAAGCGAATG (sugars k3 d10 k3, PS) is -12%; for ACCACGAACTGCTGCT (sugars k3 d10 k3, PS) it is 52%.
Take ACCACTCTAAGATTGT (sugars k3 d10 k3, PS): the target mRNA inhibition is -11%.
The same measure for ACCAGGAGTGCCAACC (sugars k3 d10 k3, PS): 8%; for ACCAGTCCTTTTAGTA (sugars k3 d10 k3, PS): -2%; for ACCCCAACTAAACATA (sugars k3 d10 k3, PS): 26%.
As for ACCCGGAAATCGGCCT (sugars k3 d10 k3, PS), the target mRNA inhibition is -6%.
The figure for ACCGTAACAGGCCACT (sugars k3 d10 k3, PS) is 20%.
Regarding ACCTACAACACCCGGA (sugars k3 d10 k3, PS), the target mRNA inhibition worked out at 25%.
The same measure for ACCTCTTAAAGCACTT (sugars k3 d10 k3, PS): 18%.
The same measure for ACCTTCTGAACCGGAG (sugars k3 d10 k3, PS): 22%; for ACCTTGGGCAGCCAGT (sugars k3 d10 k3, PS): -4%; for ACGAAGAGATACCTGT (sugars k3 d10 k3, PS): 18%.
The figure for ACGCCAACACAGTTTG (sugars k3 d10 k3, PS) is 48%; for ACGCTAAGCAATATCT (sugars k3 d10 k3, PS) it is 37%; for ACTAAAGGCTTCAGTC (sugars k3 d10 k3, PS) it is 26%.
As to ACTACCAGCCATTTCT (sugars k3 d10 k3, PS), the target mRNA inhibition is 49%.
The figure for ACTACCATATCCAAAC (sugars k3 d10 k3, PS) is 27%.
The same measure for ACTATCACAATTCTTA (sugars k3 d10 k3, PS): 13%; for ACTCAAAGTCCAATGC (sugars k3 d10 k3, PS): 31%.
The same measure for ACTCCCCCATTATATT (sugars k3 d10 k3, PS): 2%.
On to ACTCGCTCCTTCCTGG (sugars k3 d10 k3, PS), for which the target mRNA inhibition worked out at 48%.
The same measure for ACTCTGATCTGCGGCC (sugars k3 d10 k3, PS): 13%.
The figure for ACTGAAGAGCATTGGA (sugars k3 d10 k3, PS) is 34%; for ACTGAATCCACTTCTG (sugars k3 d10 k3, PS) it is 35%.
The figure for ACTGATCTGACTTTGT (sugars k3 d10 k3, PS) is 32%.
Regarding ACTGCAAGGTCTCATA (sugars k3 d10 k3, PS), the target mRNA inhibition is -1%.
The figure for ACTGCATTTACTTGCC (sugars k3 d10 k3, PS) is 8%; for ACTGCTTACAGATTTG (sugars k3 d10 k3, PS) it is 61% and 64%.
The figure for ACTGGGAATACTCTTC (sugars k3 d10 k3, PS) is 28%.
The figure for ACTGGTACACCCAGTG (sugars k3 d10 k3, PS) is -8%; for ACTTATCCCTAACATG (sugars k3 d10 k3, PS) it is 13%; for ACTTGAATGCAAACTA (sugars k3 d10 k3, PS) it is 11%.
For the sequence AGAAATCGGAGCAGCA (sugars k3 d10 k3, PS), the target mRNA inhibition came out at 9%.
The same measure for AGAAGAATCCCCCCCA (sugars k3 d10 k3, PS): -13%; for AGAAGTCTCGGGCTGC (sugars k3 d10 k3, PS): 8%.
The same measure for AGACAGACCTAAGGGA (sugars k3 d10 k3, PS): 21%; for AGACAGATTAGTAGTC (sugars k3 d10 k3, PS): -8%; for AGAGAAGAATCCCCCC (sugars k3 d10 k3, PS): 28%.
The figure for AGAGTGTTCGCAGACA (sugars k3 d10 k3, PS) is 57%; for AGATACCTGTCTGAGG (sugars k3 d10 k3, PS) it is 12%; for AGATAGCAGCACAACT (sugars k3 d10 k3, PS) it is -5%.
For the sequence AGATTCACTGAATCCA (sugars k3 d10 k3, PS), the target mRNA inhibition is 6%.
The same measure for AGATTTGAGCTGCAAA (sugars k3 d10 k3, PS): 11%; for AGCACCTGGGTCAGCT (sugars k3 d10 k3, PS): -5%.
Consider AGCACGGGCTGTCTGC (sugars k3 d10 k3, PS), for which the target mRNA inhibition was 7%.
The same measure for AGCAGCACGGGCTGTC (sugars k3 d10 k3, PS): 10%; for AGCCTATAAGGACAGC (sugars k3 d10 k3, PS): 23%.
The figure for AGCCTTGCAGGGACGG (sugars k3 d10 k3, PS) is -21%.
The figure for AGCCTTTATCACTCAG (sugars k3 d10 k3, PS) is 35%.
Consider AGCGAGTTCAAGTGGC (sugars k3 d10 k3, PS), for which the target mRNA inhibition is 27%.
The figure for AGCTACCATCAGAAGA (sugars k3 d10 k3, PS) is 34%; for AGCTATTAAAATTACG (sugars k3 d10 k3, PS) it is 22%.
The figure for AGCTCTATACTTTGAA (sugars k3 d10 k3, PS) is 64%; for AGCTGCAGGCTATTAC (sugars k3 d10 k3, PS) it is 39%; for AGCTGTCAATTAATGC (sugars k3 d10 k3, PS) it is 10%.
With AGCTTCATCAAACACT (sugars k3 d10 k3, PS), the target mRNA inhibition came to 3%.
The figure for AGCTTGGCCAAGTCTG (sugars k3 d10 k3, PS) is 28%; for AGCTTGTTCACCTGTT (sugars k3 d10 k3, PS) it is 37%; for AGCTTTACCTTCTAAC (sugars k3 d10 k3, PS) it is 47%.
The same measure for AGGAACAAGTCCTACA (sugars k3 d10 k3, PS): 36%; for AGGATTCTAGACAGAC (sugars k3 d10 k3, PS): 72% and 71%.
